Measured values as given in patent publication US6680058B1, “Compositions and methods for contraception in or sterilization of mammals” (Board of Supervisors of Louisiana State University and …, priority 1997, dated 2004).
Where no end group is shown, it is not given here.

Tests used:
[1] = tested on: sexually mature, mixed breed, female rats; assay: Sexually mature female rats, double intravenous treatment, necropsy two weeks after treatment (Examples 9-14); type: in vivo, rat
From the text: Eighteen sexually mature, mixed breed, female rats were randomly assigned to one of six groups containing three rats each. Each group of rats received a double treatment intravenously, as described below. Two weeks after the treatment, the rats were sacrificed and necropsied. The reproductive and endocrine organs were sectioned, weighed, and examined histologically.

[2] = tested on: gonadotropes in the pituitary and neurons in the brain bearing GnRH receptors; assay: Rats, treatments generally similar to treatments 9-14, immunohistochemical staining (Example 23); type: in vivo, rat; details: fusion peptide administered
Procedure: Subsequent experiments were conducted on rats using treatments generally similar to treatments 9-14 above. […] The selective killing of these cells was seen after the GnRH-hecate fusion peptide was administered; and after the administration of GnRH alone, followed 10 minutes later by the administration of hecate alone.

[3] = tested on: sexually immature female rats; assay: Thirty-three-day-old sexually immature female rats, intravenous, sacrificed 14 days after treatment, histology and immunocytochemistry (Examples 35-38); type: in vivo, rat; details: Treatment 37: 0.5 mg i.v.
Procedure: Another set of experiments was performed to study the in vivo effects of the GnRH-hecate conjugate on female rats and rabbits. The ovaries, uterus, oviducts, adrenals, spleen, thyroids, pancreas, liver, lungs, and heart were processed for histological analysis. […] The immunocytochemical staining procedures we used followed generally the procedures of M. Rahmanian et al., “Histological and immunocytochemical characterization of pituitary cell types in ponies,” Proc. 13th Soc. Equine Nutrition & Phys. Symp., pp. 348-349 (1993); M. Rahmanian et al., “Immunocytochemical localization of luteinizing hormone and follicle-stimulating hormone in the equine pituitary,” J. Anim. Sci., vol. 76, pp. 839-846 (1998); M. Rahmanian et al., “Immunocytochemical localization of prolactin and growth hormone in the equine pituitary,” Animal Sci., vol. 75, pp. 3010-3018 (1997); and P. Melrose et al., “Comparative topography of the immunoreactive alpha-melanocyte-stimulating hormone neuronal system in the brains of horses and rats,” Brain Beh. & Evol., vol. 32, pp. 226-235 (1988).
Brains were serially sectioned on a Vibrotome from the level of the diagonal band of Broca to the mammillary body. Alternate sections were consecutively divided into four to five dishes, and sections in alternate dishes were stained with cresyl violet, or were stained immunocytochemically for GnRH or the GnRH precursor, VP, OXY, or tyrosine hydroxylase (the rate-limiting enzyme in catecholamine synthesis). In addition to the staining procedures cited above, we also used the immunocytochemical staining procedures of P. Melrose et al., “Distribution and morphology of immunoreactive gonadotropin-releasing hormone (GnRH) neurons in the basal forebrain of ponies,” J. Comp. Neurol. vol. 339, pp. 269-287 (1994); and P. Melrose et al., “Topography of oxytocin and vasopressin neurons in the forebrain of Equus caballus: Further support of proposed evolutionary relationships for proopiomelanocortin, oxytocin and vasopressin neurons,” Brain, Beh. & Evol., vol. 33, pp. 193-204 (1989).
Thirty-three-day-old, sexually immature female rats were given intravenous administrations as follow:
Animals were sacrificed 14 days after treatment.

[4] = tested on: sexually immature female rats; assay: Sexually immature (33 day old) female rats, intravenous GnRH-hecate dose series, sacrificed at 24 hours or 14 days (Examples 39-43); type: in vivo, rat; details: for abnormal GnRH-receptor-containing neurons: sacrificed fourteen days after treatment
Procedure: Sexually immature (33 day old) female rats (randomly allocated into groups of three) were injected intravenously with saline or GnRH-hecate in saline as follows:
Animals were sacrificed at 24 hours or at 14 days after treatment. […] In the rats sacrificed fourteen days after treatment, 66% and 87% of the GnRH-receptor-containing neurons were abnormal in the rats that had received 1.0 and 1.5 mg of GnRH-hecate, respectively. Axonal degeneration in the 1.5 mg GnRH-hecate group was accompanied by over 90% reduction in median eminence staining for GnRH.

[5] = tested on: sexually mature female rabbits; assay: Sexually mature female rabbits, intravenous GnRH-hecate, GnRH challenge day 6, sacrifice day 7 (Examples 47-48); type: in vivo, rabbit
Procedure: Nine sexually mature female rabbits were injected intravenously with saline containing 0 mg (n=4) (Treatment 47) or 10 mg GnRH-hecate (n=5) (Treatment 48). Rabbits were injected intramuscularly with GnRH on day 6 post-treatment. Blood samples were collected for radioimmunoassay of LH and FSH as described above, and the animals were sacrificed on day 7 post-treatment. […] Again, the effects were more pronounced on GnRH neurons than on staining of pituitary gonadotropes.
The number of ovulation sites in rabbits in Examples 47 and 48 treated with 10 mg GnRH-hecate were reduced as compared to saline controls. The mean number of ovulation sites in four saline controls equalled 12.2±5.4, with S.E.M.=2.7. The mean number of ovulation sites in the five rabbits given 10 mg of GnRH-hecate was 3.6±1.1, with S.E.M.=0.5. This difference from control was significant (p=0.025).
The “LH surge” (the level of LH at one hour post-GnRH challenge, minus the resting level before challenge) in the four controls was 61.2±16.5 ng/mL, with S.E.M.=8.3; and in the treated group was 49.6±26.1 ng/mL, with S.E.M.=12 (p=0.22). Thus there was a trend towards lower LH levels in the treated group.

[6] = tested on: GnRH receptor-bearing cells in the brain (neurons) and in the pituitary (gonadotrophic cells); assay: Summary of the in vivo studies: selectivity of the GnRH-hecate conjugate; set-up: species or system rats and rabbits
[7] = Treatment 10: two 0.5 mg i.v. injections 24 hours apart, two weeks
[8] = Treatment 14: fusion peptide further purified by HPLC, two 0.5 mg i.v. injections 24 hours apart
[9] = 0.1 to 1.5 mg i.v., 24 hours or 14 days

GnRH-hecate: fusion peptide of modified GnRH bonded directly to the lytic peptide hecate, SEQ. ID NO. 3 (QHWSYGLRPGFALALKALKKALKKLKKALKKAL; ends and bridges not checked; also: GnRH part modified, modification not given here)
ovarian function / follicular development ([1]; Treatment 10: total 1.0 mg in saline i.v. as two 0.5 mg injections 24 hours apart, two weeks): arrest of normal ovarian follicular development
corpora lutea and follicles [1, 7]: Few corpora lutea were present, and those that were present appeared old. Follicles were large, and had not ruptured
pituitary size [1, 7]: slightly smaller than the pituitaries from the saline control group
uterine morphology [1, 7]: consistent with hormonal inactivity
corpora lutea and follicles [1, 8]: Few corpora lutea were present, and those that were present appeared old. Follicles were large, and had not ruptured
uterine morphology [1, 8]: consistent with hormonal inactivity
ovarian function / follicular development ([1]; Treatment 14: fusion peptide further purified by HPLC, two 0.5 mg i.v. injections 24 hours apart, two weeks): arrest of normal ovarian follicular development
LH and FSH secretion by pituitary cells [2]: no longer secreted either LH or FSH
selective cell killing seen with immunohistochemical staining ([2]; treatments generally similar to treatments 9-14): selectively killed (1) gonadotropes in the pituitary, and (2) neurons in the brain bearing GnRH receptors
reduction of pituitary weights compared to the two GnRH control groups ([3]; 33-day-old female rat, 14 days after treatment): 13%
adrenocorticotropic hormone levels in the pars distalis ([3]; 14 days): reduced
cell bodies of GnRH-stained neurons in hypophysiotropic areas of the brain ([3]; 14 days): frequently deformed
histology of the C1 and C3 fields of the hippocampus ([3]; 14 days): histological damage to cells
number of alpha-MSH-stained cells in the pars distalis ([3]; 14 days): increased
pathological changes in any other tissues ([3]; 14 days): No pathological changes
reduction of the numbers of bLH-specific gonadotropes compared to the two GnRH control groups ([3]; 14 days): 92%
VP staining in the paraventricular nucleus ([3]; 14 days, may have been caused by a precipitate): increased staining of parvicellular VP neurons in the paraventricular nucleus
abnormal GnRH-receptor-containing neurons ([4]; 1.0 mg i.v.): 66%
reduction in median eminence staining for GnRH ([4]; 1.5 mg i.v.): over 90%
abnormal GnRH-receptor-containing neurons ([4]; 1.5 mg i.v.): 87%
VP staining in the CNS [4, 9]: not altered
precipitate in the brain [4, 9]: no precipitate was found in the brain
morphology of GnRH-receptor-containing neurons ([4]; treatments with higher levels of GnRH-hecate): a large number of GnRH-receptor-containing neurons having abnormal morphologies
amount of LH released in response to GnRH ([5]; 10 mg i.v. (n=5), GnRH i.m. on day 6 post-treatment): lower in the treated animals than in the controls
mean number of ovulation sites ([5]; 10 mg i.v., five rabbits, S.E.M.=0.5, saline controls 12.2±5.4, p=0.025): 3.6±1.1
LH surge (level of LH at one hour post-GnRH challenge, minus the resting level before challenge) ([5]; 10 mg i.v., S.E.M.=12, controls 61.2±16.5 ng/mL, p=0.22): 49.6 ± 26.1 ng/mL
effects on peripheral tissues ([5]; 10 mg i.v., day 7): No effects
effects on pituitary weight ([5]; 10 mg i.v., day 7): No effects
numbers of GnRH-induced ovulations ([5]; 10 mg i.v., day 7): reduced
numbers of tertiary ovarian follicles ([5]; 10 mg i.v., day 7): reduced
changes in other endocrine and non-endocrine tissues (except for the ovary) [6]: No changes
changes in pituitary cells that lacked GnRH receptors [6]: No changes
cytotoxic changes in neurons that lacked GnRH receptors [6]: No cytotoxic changes
effect on GnRH receptor-bearing cells [6]: selectively damaged GnRH receptor-bearing cells in the brain (neurons) and in the pituitary (gonadotrophic cells)
